Where two headings read alike, the source gives them in different places. A value given as a limit tells only on which side of the number the result lay.

In experiment [1] the test system is Wnt activity (Sp5-Luc reporter in SW480 cells). Kind of experiment: Screening assay for Wnt activity: Sp5-Luc reporter gene assay in SW480 colon carcinoma cells. The experiment is classed as cell-based, human. The note with it: 36 to 48 hours. The procedure, abridged:
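SW480 colon carcinoma cells stably carrying a lentiviral luciferase reporter driven by an Sp5 promoter with eight TCF/LEF sites, plated at 4,000 cells/well in DMEM with 1% FBS. Compound exposure for 36–48 h at 37 °C, then luminescence read. Signals normalized to DMSO; EC50 from four-parameter nonlinear fit.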
(Reporter assays use an easily measured gene product as a stand-in for the process of interest.)

A further experiment concerns the target DYRK1A kinase (Homo sapiens (Human), UniProt Q13627). The experiment in a line: DYRK1A kinase assay (Ser/Thr 18 peptide Z-lyte FRET). The experiment is classed as biochemical. Conditions: read-out: EC50 (method: IC50). In short, it runs like this:
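This Z-lyte FRET assay reads the coumarin/fluorescein emission ratio. Compounds were incubated with the reaction mixture for 1 h at room temperature, followed by development reagent for a further 1 h at room temperature, in duplicate.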

Another experiment deals with GSK3β kinase (Homo sapiens (Human), UniProt P49841). Kind of experiment: GSK3β kinase assay (Ser/Thr 09 peptide Z-lyte FRET). The experiment is classed as biochemical. The note with it: read-out: EC50 (method: IC50). In short, it runs like this:
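Non-radioactive Z-lyte FRET read-out, kinase activity expressed as coumarin/fluorescein emission ratio. Compounds incubated with the reaction mixture one hour at room temperature in duplicate, then development buffer added for another hour. IC50 from non-linear regression of dose-response curves.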

For experiment [2], the system named is SW480 colon carcinoma cells. Kind of experiment: Cell viability assay (CellTiter-Glo) in SW480 colon carcinoma cells. In kind it is cell-based, human. Conditions: four days. In short, it runs like this: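 SW480 cells stably carrying an Sp5-promoter luciferase reporter were plated at 2,000 cells/well in DMEM with 1% FBS and treated with compound for four days at 37 °C. Viability was read as ATP luminescence with CellTiter-Glo after about 12 min; DMSO-treated wells served as controls.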
(In general: Cellular ATP, detected with luciferase, serves as a proxy for viable cell number.)

In experiment [3] the test system is primary human fibroblasts derived from IPF patients (LL29 cells). The experiment in a line: Inhibition of the fibrotic process: αSMA staining in TGF-β1 treated LL29 fibroblasts. In kind it is cell-based. The note with it: LL29 cells, TGF-β1 20 ng/mL, 4 days, % αSMA positive cells. In short, it runs like this: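 LL29 fibroblasts from IPF patients, in F12 medium with 1% FBS, treated with TGF-β1 plus compound; TGF-β1 with DMSO as positive control, DMSO alone as negative control. After 4 days' incubation, SYTOX green nucleic acid stain added at 1 μM final, 30 min at room temperature.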

In another experiment the test system is IL-6. Kind of experiment: IL-6 inhibition in LPS-stimulated human peripheral blood mononuclear cells (HTRF). The experiment is classed as cell-based. Conditions: for EC50: huPBMCs, LPS 50 ng/mL, 22 hours, IL-6 HTRF; for inhibition at 10 µM: read-out: percent inhibition at 10 μM. The procedure, abridged: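 Fresh human PBMCs at 1×10e6 cells/mL in RPMI/1% FBS were stimulated with 50 ng/mL E. coli 0111:B4 LPS added 2 h after compound, then incubated 22 h at 37° C. Secreted IL-6 was measured by HTRF (665/620 nm ratio) after 3 h at room temperature. EC50 was taken from activity normalized to DMSO-treated cells.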
On the technique in general: Time-resolved FRET reads energy transfer from a long-lived donor to a nearby acceptor.

Sequence of GSK3β kinase (P49841 whole entry): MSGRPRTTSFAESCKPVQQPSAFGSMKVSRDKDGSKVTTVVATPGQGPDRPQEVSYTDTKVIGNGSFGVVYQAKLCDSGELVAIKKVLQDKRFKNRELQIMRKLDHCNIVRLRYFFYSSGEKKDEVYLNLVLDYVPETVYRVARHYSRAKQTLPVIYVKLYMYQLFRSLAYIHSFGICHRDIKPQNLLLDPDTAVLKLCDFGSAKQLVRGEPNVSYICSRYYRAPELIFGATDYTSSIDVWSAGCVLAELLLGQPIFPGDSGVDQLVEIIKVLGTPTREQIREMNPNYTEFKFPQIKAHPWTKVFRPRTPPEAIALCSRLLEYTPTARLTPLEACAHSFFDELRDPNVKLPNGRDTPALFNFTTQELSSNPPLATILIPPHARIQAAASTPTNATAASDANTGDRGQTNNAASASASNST

Consider `Cn1cc(-c2cc3c(C(=O)Nc4ccc5c(c4)CNC5)n[nH]c3cc2F)cn1` [Compound 84, 6-Fluoro-N-(isoindolin-5-yl)-5-(1-methyl-1H-pyrazol-4-yl)-1H-indazole-3-carboxamide], for which the EC50 – broadly, the concentration giving half of the maximal effect – in experiment [1] (Homo sapiens) is 1340 nM; in experiment [2] (Homo sapiens, 96 h), 300 nM; in experiment [3] (Homo sapiens, Fibroblast, 96 h), 1690 nM; in the experiment with IL-6 (Homo sapiens, PBMC), greater than 10000 nM. Further, the IC50 (commonly the concentration at which inhibition is half-maximal) at DYRK1A kinase was 2 nM; on GSK3β kinase it was 21 nM. Besides, in the experiment with IL-6 (Homo sapiens, PBMC), the inhibition (as a rule, the change of the read-out against control, counted positive when it falls) at 10 µM was 2.1%.

As to `CN1Cc2ccc(NC(=O)c3n[nH]c4cc(F)c(-c5cnn(C)c5)cc34)cc2C1` [Compound 85, 6-Fluoro-5-(1-methyl-1H-pyrazol-4-yl)-N-(2-methylisoindolin-5-yl)-1H-indazole-3-carboxamide], the EC50 came out at 566 nM in experiment [1] (Homo sapiens); 203 nM in experiment [2] (Homo sapiens, 96 h); 904 nM in experiment [3] (Homo sapiens, Fibroblast, 96 h); 2990 nM with IL-6 (Homo sapiens, PBMC). Further, the IC50 on DYRK1A kinase stood at 2 nM; at GSK3β kinase it was 35 nM.

Regarding `O=C(Nc1ccc(OC(F)F)nc1)c1n[nH]c2ccc(-c3cnn(C4CNC4)c3)cc12` [Compound 86, 5-(1-(Azetidin-3-yl)-1H-pyrazol-4-yl)-N-(6-(difluoromethoxy)pyridin-3-yl)-1H-indazole-3-carboxamide], the EC50 in experiment [1] (Homo sapiens) is 1840 nM; in experiment [2] (Homo sapiens, 96 h), greater than 10000 nM; in experiment [3] (Homo sapiens, Fibroblast, 96 h), 1190 nM; in the experiment with IL-6 (Homo sapiens, PBMC), greater than 10000 nM. Moreover, the IC50 on DYRK1A kinase was found to be 98 nM; at GSK3β kinase, 354 nM. Further, the inhibition at 10 µM in the experiment on IL-6 (Homo sapiens, PBMC) turned out to be 14.8%.

As to `O=C(Nc1ccc(OC(F)F)nc1)c1n[nH]c2ccc(-c3cnn(CCN4CCCC4)c3)cc12` [Compound 89, N-(6-(Difluoromethoxy)pyridin-3-yl)-5-(1-(2-(pyrrolidin-1-yl)ethyl)-1H-pyrazol-4-yl)-1H-indazole-3-carboxamide], the EC50 in experiment [1] (Homo sapiens) is 4340 nM; in experiment [2] (Homo sapiens, 96 h), 4600 nM; in experiment [3] (Homo sapiens, Fibroblast, 96 h), 1200 nM; in the experiment with IL-6 (Homo sapiens, PBMC), 6590 nM. Moreover, the IC50 was determined as 304 nM on DYRK1A kinase and 656 nM at GSK3β kinase.

As for `O=C(Nc1ccc(OC(F)F)nc1)c1n[nH]c2ccc(-c3cnn(CCN4CCOCC4)c3)cc12` [Compound 90, N-(6-(Difluoromethoxy)pyridin-3-yl)-5-(1-(2-morpholinoethyl)-1H-pyrazol-4-yl)-1H-indazole-3-carboxamide], the EC50 in experiment [1] (Homo sapiens) was 2130 nM; in experiment [2] (Homo sapiens, 96 h) it was 7390 nM; in experiment [3] (Homo sapiens, Fibroblast, 96 h) it was greater than 10000 nM; in the experiment with IL-6 (Homo sapiens, PBMC) it was greater than 10000 nM. In addition, the figures for the IC50 at DYRK1A kinase and at GSK3β kinase were 329 nM and 403 nM, respectively. Further, the inhibition at 10 µM in the experiment on IL-6 (Homo sapiens, PBMC) came to 37%.

As for `O=C(Nc1ccc(N2CCCC2)nc1)c1n[nH]c2ccc(-c3cnn(C4CC4)c3)cc12` [Compound 91, 5-(1-Cyclopropyl-1H-pyrazol-4-yl)-N-(6-(pyrrolidin-1-yl)pyridin-3-yl)-1H-indazole-3-carboxamide], the EC50 was 1130 nM in experiment [1] (Homo sapiens); 2100 nM in experiment [2] (Homo sapiens, 96 h); 1490 nM in experiment [3] (Homo sapiens, Fibroblast, 96 h); greater than 10000 nM in the experiment with IL-6 (Homo sapiens, PBMC). The IC50 at DYRK1A kinase came to 50 nM; at GSK3β kinase, 332 nM. Further, the inhibition at 10 µM in the experiment on IL-6 (Homo sapiens, PBMC) amounted to 53.6%.

As to `O=C(Nc1ccc(N2CCCC2)nc1)c1n[nH]c2cc(F)c(-c3cnn(C4CC4)c3)cc12` [Compound 92, 5-(1-Cyclopropyl-1H-pyrazol-4-yl)-6-fluoro-N-(6-(pyrrolidin-1-yl)pyridin-3-yl)-1H-indazole-3-carboxamide], the EC50 was 2310 nM in experiment [1] (Homo sapiens); greater than 10000 nM in experiment [2] (Homo sapiens, 96 h); 313 nM in experiment [3] (Homo sapiens, Fibroblast, 96 h); greater than 10000 nM with IL-6 (Homo sapiens, PBMC). Moreover, the IC50 is 39 nM on DYRK1A kinase and 699 nM at GSK3β kinase. Also, in the experiment with IL-6 (Homo sapiens, PBMC), the inhibition at 10 µM was 0%.

In the case of `O=C(Nc1ccc(N2CCCC2)nc1)c1n[nH]c2ccc(-c3cnn(C4CCNCC4)c3)cc12` [Compound 93, 5-(1-(Piperidin-4-yl)-1H-pyrazol-4-yl)-N-(6-(pyrrolidin-1-yl)pyridin-3-yl)-1H-indazole-3-carboxamide], the EC50 in experiment [1] (Homo sapiens) was 1590 nM; in experiment [2] (Homo sapiens, 96 h) it was 823 nM; in experiment [3] (Homo sapiens, Fibroblast, 96 h) it was 1200 nM; with IL-6 (Homo sapiens, PBMC) it was greater than 10000 nM. In addition, the IC50 at DYRK1A kinase came out at 6 nM; at GSK3β kinase it was 430 nM. Besides, the inhibition at 10 µM in the experiment on IL-6 (Homo sapiens, PBMC) came to 5.5%.

In the case of `O=C(Nc1ccc(N2CCCC2)nc1)c1n[nH]c2cc(F)c(-c3cnn(C4CCNCC4)c3)cc12` [Compound 94, 6-Fluoro-5-(1-(piperidin-4-yl)-1H-pyrazol-4-yl)-N-(6-(pyrrolidin-1-yl)pyridin-3-yl)-1H-indazole-3-carboxamide], the EC50 in experiment [1] (Homo sapiens) is 798 nM; in experiment [2] (Homo sapiens, 96 h), 732 nM; in experiment [3] (Homo sapiens, Fibroblast, 96 h), 1380 nM; with IL-6 (Homo sapiens, PBMC), greater than 10000 nM. For the same compound, the concentration for half-maximal inhibition (IC50) on DYRK1A kinase came to 4 nM; on GSK3β kinase it was 272 nM. For the same compound, the inhibition at 10 µM in the experiment on IL-6 (Homo sapiens, PBMC) came to 5%.

On to `CN1CCN(c2ccc(NC(=O)c3n[nH]c4cc(F)c(-c5cnn(C)c5)cc34)cn2)CC1` [Compound 95, 6-Fluoro-5-(1-methyl-1H-pyrazol-4-yl)-N-(6-(4-methylpiperazin-1-yl)pyridin-3-yl)-1H-indazole-3-carboxamide], for which the EC50 in experiment [1] (Homo sapiens) is 175 nM; in experiment [2] (Homo sapiens, 96 h), 286 nM; in experiment [3] (Homo sapiens, Fibroblast, 96 h), 195 nM; in the experiment on IL-6 (Homo sapiens, PBMC), 1000 nM. Also, the IC50 on DYRK1A kinase worked out at 1 nM; on GSK3β kinase it was 46 nM.

For `CN1CCC(Oc2ccc(NC(=O)c3n[nH]c4cc(F)c(-c5cnn(C)c5)cc34)cn2)CC1` [Compound 96, 6-Fluoro-5-(1-methyl-1H-pyrazol-4-yl)-N-(6-((1-methylpiperidin-4-yl)oxy)pyridin-3-yl)-1H-indazole-3-carboxamide], the EC50 in experiment [1] (Homo sapiens) was determined as 165 nM; in experiment [2] (Homo sapiens, 96 h) it was 118 nM; in experiment [3] (Homo sapiens, Fibroblast, 96 h), 367 nM; in the experiment with IL-6 (Homo sapiens, PBMC) it was 1210 nM. Besides, the IC50 at DYRK1A kinase was determined as 1 nM; on GSK3β kinase it was 30 nM.

As to `Cc1ncc(NC(=O)c2n[nH]c3ccc(-c4cnn(C5CCNCC5)c4)cc23)s1` [Compound 97, N-(2-Methylthiazol-5-yl)-5-(1-(piperidin-4-yl)-1H-pyrazol-4-yl)-1H-indazole-3-carboxamide], the EC50 in experiment [1] (Homo sapiens) turned out to be 269 nM; in experiment [2] (Homo sapiens, 96 h), 354 nM; in experiment [3] (Homo sapiens, Fibroblast, 96 h), 291 nM; in the experiment on IL-6 (Homo sapiens, PBMC), 2280 nM. For the same compound, the IC50 worked out at 2 nM on DYRK1A kinase and 98 nM on GSK3β kinase.

`Cc1ncc(NC(=O)c2n[nH]c3ccc(-c4cnn(C5CCN(C)CC5)c4)cc23)s1` [Compound 98, 5-(1-(1-Methylpiperidin-4-yl)-1H-pyrazol-4-yl)-N-(2-methylthiazol-5-yl)-1H-indazole-3-carboxamide]: the EC50 in experiment [1] (Homo sapiens) is 100 nM; in experiment [2] (Homo sapiens, 96 h) it was 116 nM; in experiment [3] (Homo sapiens, Fibroblast, 96 h), 119 nM; with IL-6 (Homo sapiens, PBMC), 1120 nM. For the same compound, the IC50 on DYRK1A kinase turned out to be 2 nM; at GSK3β kinase it was 208 nM.

With `Cn1cc(-c2cc3c(C(=O)Nc4ccc(OCCN5CCCC5)cc4)n[nH]c3cc2F)cn1` [Compound 155, 6-Fluoro-5-(1-methyl-1H-pyrazol-4-yl)-N-(4-(2-(pyrrolidin-1-yl)ethoxy)phenyl)-1H-indazole-3-carboxamide], the EC50 amounted to 315 nM in experiment [1] (Homo sapiens); 414 nM in experiment [2] (Homo sapiens, 96 h); 167 nM in experiment [3] (Homo sapiens, Fibroblast, 96 h); 2050 nM in the experiment on IL-6 (Homo sapiens, PBMC). For the same compound, the results for the IC50 at DYRK1A kinase and on GSK3β kinase were 1 nM and 38 nM, respectively.

For the compound “N-(6-(Difluoromethoxy)pyridin-3-yl)-5-(1-(piperidin-4-yl)-1H-pyrazol-4-yl)-1H-indazole-3-carboxamide [Compound 87]”, the EC50 in experiment [1] stood at 216 nM; in experiment [2] it was 554 nM; in experiment [3], 672 nM; in the experiment with IL-6, 3850 nM. The IC50 on DYRK1A kinase (recombinant DYRK1A, 30 μM ATP, one hour, column head prints EC50) was determined as 8 nM; at GSK3β kinase (recombinant GSK3β, 46 μM ATP, one hour, column head prints EC50), 182 nM.

These data come from patent publication US10934297B2, “5-heteroaryl substituted indazole-3-carboxamides and preparation and use thereof” (Samumed, LLC, priority 2018, dated 2021).
